{"source": "paper PMC6372683", "about": "“Mechanism of the natural product moracin-O derived MO-460 and its targeting protein hnRNPA2B1 on HIF-1α inhibition” (Experimental & Molecular Medicine, 2019)", "key": {"[1]": {"target": "T1, full-length hnRNPA2B1 (1–353 aa) (Homo sapiens, UniProt P22626)", "T1 construct": "1–353 aa; His; made in house; host or cells: bacteria (pET28A vector)", "T1 sequence (P22626 whole entry, the tested form may be a part)": "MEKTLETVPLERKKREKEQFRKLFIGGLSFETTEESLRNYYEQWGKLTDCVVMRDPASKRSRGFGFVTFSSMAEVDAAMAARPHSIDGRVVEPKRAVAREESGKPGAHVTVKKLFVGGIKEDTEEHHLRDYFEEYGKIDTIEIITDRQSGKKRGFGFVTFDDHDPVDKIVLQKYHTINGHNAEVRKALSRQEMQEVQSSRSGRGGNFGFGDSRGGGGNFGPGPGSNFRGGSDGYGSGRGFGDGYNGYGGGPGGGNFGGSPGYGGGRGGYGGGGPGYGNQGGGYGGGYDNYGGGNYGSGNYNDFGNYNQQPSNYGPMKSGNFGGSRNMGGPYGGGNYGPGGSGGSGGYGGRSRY", "experiment": "BLItz association-dissociation binding assay, full-length hnRNPA2B1", "conditions": "6XHis tagged protein, Con. 5 uM, biotin-MO-460 on streptavidin tip", "procedure": "(§1) The binding capacity of hnRNPA2B1 to Biotin-MO-460 was also analyzed using a BLItz™ (Fortebio, Inc., CA, US) instrument with a streptavidin-coated biosensor tip (Pall, USA). The streptavidin-coated tips were pre-wetted for 10 min in an incubation buffer (10 mM HEPES pH 7.4, 1% BSA and 0.05% Tween 20). The streptavidin-coated tips were immobilized with 1 μM Biotin-MO-460 in incubation buffer (10 mM HEPES pH 7.4, 1% BSA and 0.05% Tween 20) for 5 min. […] The concentrations were then incubated with HEPES for another 3 min to desorb the protein. Analysis of the accurate and precise kinetic constants was performed by the BLItz data analysis software (BLItz Pro 1.1)."}, "[2]": {"target": "T2, hnRNPA2B1 GRD3 (301–353 aa) (Homo sapiens, UniProt P22626)", "T2 construct": "hnRNPA2B1(301-353aa); made in house; host or cells: bacteria (pGEX6P-1 vector)", "T2 sequence (P22626 301-353)": "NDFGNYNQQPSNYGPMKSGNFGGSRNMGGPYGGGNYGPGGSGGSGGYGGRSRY", "experiment": "BLItz association-dissociation binding assay, GST-fused GRD3", "conditions": "Con. 5 uM", "procedure": "The binding capacity of hnRNPA2B1 to Biotin-MO-460 was also analyzed using a BLItz™ (Fortebio, Inc., CA, US) instrument with a streptavidin-coated biosensor tip (Pall, USA). The streptavidin-coated tips were pre-wetted for 10 min in an incubation buffer (10 mM HEPES pH 7.4, 1% BSA and 0.05% Tween 20). The streptavidin-coated tips were immobilized with 1 μM Biotin-MO-460 in incubation buffer (10 mM HEPES pH 7.4, 1% BSA and 0.05% Tween 20) for 5 min. The biosensor was washed with HEPES (pH 7.4) and incubated with 250-, 500- and 1,000-nM concentrations of the full-length and truncated hnRNPA2B1 proteins for 3 min. The concentrations were then incubated with HEPES for another 3 min to desorb the protein. Analysis of the accurate and precise kinetic constants was performed by the BLItz data analysis software (BLItz Pro 1.1)."}, "HIF-1α in Hep3B cells": {"tested_on": "HIF-1α in Hep3B cells", "experiment": "HIF-1α protein accumulation under CoCl2 mimetic hypoxia (immunostaining and western blotting)", "type": "cell-based, human"}, "[3]": {"tested_on": "HIF-1α mRNA in Hep3B cells", "experiment": "HIF-1α mRNA level by qRT-PCR / RT-PCR", "type": "cell-based, human", "procedure": "Cells were lysed with TRIzol (Invitrogen) and proteins were extracted with chloroform. RNAs were precipitated with isopropanol and washed with 75% ethanol diluted with DEPC-treated water. Purity and concentration of RNA was analyzed using nano drop. The cDNA was synthesized from total RNA in a reaction mixture containing 5 × reaction buffer (250 mM Tris-HCl pH 8.3, 375 mM KCl, 15 mM MgCl2, 50 mM DTT), 50 μg/mL Oligo-dT, 10 mM dNTP, and 50,000 U M-MLV reverse transcriptase (Promega, Madison, WI). Amplified PCR products obtained with β actin-specific primers served as internal controls. The sequences of the primers used for this study are listed in Supplementary Materials and Methods 5 and 6."}, "Hep3B cells": {"tested_on": "Hep3B cells", "experiment": "Stress granule formation (immunostaining of hnRNPA2B1 and TIA-1)", "type": "cell-based, human", "conditions": "mimetic hypoxia"}, "[4]": {"target": "T3, hnRNPA2B1 GRD (202–353 aa) (Homo sapiens, UniProt P22626)", "T3 construct": "202–353 aa; His; made in house; host or cells: bacteria (pET28A vector)", "T3 sequence (P22626 202-353)": "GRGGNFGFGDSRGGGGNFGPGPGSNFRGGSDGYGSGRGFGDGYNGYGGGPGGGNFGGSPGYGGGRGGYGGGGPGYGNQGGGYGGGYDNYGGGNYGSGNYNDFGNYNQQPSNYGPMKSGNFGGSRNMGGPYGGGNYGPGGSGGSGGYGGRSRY", "experiment": "BLItz association-dissociation binding assay, GRD of hnRNPA2B1", "conditions": "6XHis tagged protein, Con. 5 uM, biotin-MO-460 on streptavidin tip", "procedure": "as §1"}, "[5]": {"tested_on": "hnRNPA2B1 protein and HIF-1α mRNA complex", "experiment": "RNA-immunoprecipitation of hnRNPA2B1 with HIF-1α mRNA", "type": "cell-based, human", "conditions": "Hep3B cells, mimetic hypoxia, 50 μM, 24 h", "procedure": "Hep3B cells were cultured at 37 °C in a 5% atmospheric concentration of CO2 and 200 μM of CoCl2 in the presence or absence of MO-460 (50 μM) and the cells harvested after 24 h. Total lysates of Hep3B were prepared in nuclear isolation buffer [128 mM sucrose, 40 mM Tris-HCl pH 7.5, 20 mM MgCl2, 4% Triton-X100]. After clarifying by centrifugation at 2500× g for 15 min at 4 °C the nuclear pellet was resuspended in RIP buffer [150 mM KCl, 25 mM Tris-HCl pH 7.5, 5 mM EDTA, 0.5 mM DTT, 0.5% Triton-X100, and protease inhibitor cocktail], and then incubated with 4 μg of either control IgG or the anti-hnRNPA2B1 antibody. After 1.5 h of incubation, protein-G agarose beads (Santa Cruz Biotechnologies, Santa Cruz, CA) were added and then precipitated. RNAs were purified from 90% of the samples. Eluted RNAs were complemented by reverse transcriptase with random primers. cDNAs were used in the subsequent PCR reactions with the indicated primer sets. The resulting PCR products were separated on a 1.5% agarose gel. The other 10% of the samples from which RNA was not collected were separated by SDS-PAGE and then immunoblotted with anti-hnRNPA2B1 antibody."}, "hnRNPA2B1": {"target": "T4, hnRNPA2B1 (Homo sapiens, UniProt P22626)", "T4 construct": "made in house; host or cells: HEK293T", "T4 sequence (P22626 whole entry)": "as the sequence (P22626 whole entry, the tested form may be a part) above", "experiment": "In vitro pull-down assay of purified recombinant hnRNPA2B1", "type": "binding", "conditions": "excess amount of MO-460 added", "procedure": "HEK293T cells were cultured in DMEM medium supplemented with 10% fetal bovine serum in a humidified atmosphere containing 5% CO2. The cells were transfected with C-terminal Myc/DDK-tagged hnRNPA2B1 constructs. Recombinant protein was captured with an anti-DDK affinity column followed by conventional chromatography. A streptavidin-conjugated biotin linker was used as a control or streptavidin-conjugated biotinylated MO-460 were treated with 5% bovine serum albumin in PBS for 1 h at room temperature. Myc/DDK-tagged hnRNPA2B1 protein (1 ug) was incubated with streptavidin-conjugated biotin linker (1,200 μM) or streptavidin-conjugated biotinylated MO-460 (400 μM) in the presence or absence of MO-460 (400 μg) in binding buffer for 6 h at 4 °C. The reacted beads were washed with binding buffer [10 mM HEPES pH 7.9, 10 mM KCl, 0.1 mM EGTA, 0.1 mM EDTA, 0.5 mM PMSF, 0.025% 2-mercaptoethanol, and protease inhibitor cocktail] and the bound proteins eluted with SDS/PAGE sample buffer. Proteins were resolved by SDS/PAGE and detected by silver staining."}}, "note": "“And” between values parts separate entries of the source, which are not always exact repeats. Identical values can stand only once. “Also recorded” adds a separate entry of the source."}
{"smiles": "CC(C)(O)[C@H]1Cc2cc3cc(-c4ccc(O)cc4)oc3cc2O1", "note": "[MO-460, (R)-4-[6-(1-Hydroxy-1-methylethyl)-5,6-dihydro-benzo[1,2-b;5,4-b’]difuran-2-yl]-phenol]", "values": [{"measurement": "Kd", "setting": "[1]", "value": 11.4, "unit": "µM"}, {"measurement": "Kd", "setting": "[2]", "value": 0.299, "unit": "µM"}, {"measurement": "accumulation of HIF-1α protein", "setting": "HIF-1α in Hep3B cells; CoCl2 mimetic hypoxia, 24 h", "value": "inhibits the accumulation of HIF-1α protein; also recorded: reduced the level of HIF-1α protein in a concentration-dependent manner; also recorded: completely eliminated the accumulation of HIF-1α"}, {"measurement": "amount of hnRNPA2B1", "setting": "HIF-1α in Hep3B cells; western blot", "value": "no effect"}, {"measurement": "reduction in HIF-1α mRNA level", "setting": "[3]; 50 µM, mimetic hypoxia, qRT-PCR", "value": "~ 10% and < 10%"}, {"measurement": "effect on HIF-1α transcript level", "setting": "[3]; normoxic condition", "value": "no observed effect; also recorded: did not affect HIF-1α transcript levels"}, {"measurement": "stress granule formation, co-localization with TIA-1", "setting": "Hep3B cells", "value": "causes formation of cytoplasmic dots in hnRNPA2B1"}, {"measurement": "Kd", "setting": "[4]", "value": 6.6, "unit": "µM"}, {"measurement": "interaction between hnRNPA2B1 and HIF-1α mRNA", "setting": "[5]", "value": "abolished"}, {"measurement": "interaction between hnRNPA2B1 and biotin-MO-460 on competition", "setting": "hnRNPA2B1", "value": "eliminated"}]}
